We go through eight substances from patent US20190022166A1, “ORAL ANTI-INFLAMMATORY PEPTIDES TO TREAT EPILEPSY, SEIZURES AND CNS DISORDERS” (Creative Bio-Peptides Inc., priority 2017, published 2019).

The target of test [1] is CCR5 receptor on human monocytes (human) (UniProt P51681). Put plainly: cell-based or functional assay.
Test [2] addresses CCR2 receptor on human monocytes (human) (UniProt P41597). Put plainly: cell-based or functional assay.
Test [3] addresses T1, CCR2 (Homo sapiens, UniProt P41597).
T1 sequence (P41597 1-360 isoform P41597-2): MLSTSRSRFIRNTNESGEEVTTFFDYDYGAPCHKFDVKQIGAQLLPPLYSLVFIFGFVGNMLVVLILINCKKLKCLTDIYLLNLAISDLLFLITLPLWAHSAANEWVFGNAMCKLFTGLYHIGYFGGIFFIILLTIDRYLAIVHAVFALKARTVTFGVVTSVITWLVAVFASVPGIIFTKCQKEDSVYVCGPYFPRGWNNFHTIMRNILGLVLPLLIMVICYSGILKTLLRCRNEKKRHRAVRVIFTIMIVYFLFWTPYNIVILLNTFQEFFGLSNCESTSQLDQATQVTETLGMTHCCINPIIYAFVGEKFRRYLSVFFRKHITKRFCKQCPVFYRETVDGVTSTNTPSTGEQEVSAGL
Put plainly: CCL2 (MCP-1) elicited chemotaxis of human monocytes. It is filed as cell-based. Also noted: endogenous in cells; host or cells: human monocytes. To be noted: FIG. 3; methods similar to FIG. 2; low concentration. How it is done: Monocytes were treated with the indicated doses of RAP-103 for 30 min before chemotaxis against human CCL2 (MCP-1) or CCL4 (MIP-1β) (both 50 ng/mL) for 90 min. Data (chemotactic index) are presented as mean ±SEM. The chemotactic index for MCP-1 without RAP-103 was 2.5-3.5 times over control, whereas for MIP-1 ? without RAP-103, it was approximately 2 times over control. Data are presented as mean ±SEM. (*P<0.05, **P<0.01 vs RAP-103 untreated). Data are from (12), FIG. 1. […] Dual-chemokine CCR2/CCR5 receptor antagonists may have added therapeutic value by blocking multiple inflammatory pathways.
The methods employed are similar to those in FIG. 2.

The next test deals with response to bradykinin. To be noted: amounts up to 50,000 times the standard challenge of bradykinin; cited from earlier work.
Test [4] deals with CCR2. To be noted: Rat, nerve injured, oral gavage 0.05-1 mg/kg for 7 days, M1. An excerpt:
(§1) The specific experimental details are provided in Padi, 2012 (12).

Test [5] deals with CCR5. To be noted: Rat, nerve injured, oral gavage 0.05-1 mg/kg for 7 days, M1.
Text: as §1

Another test deals with IL-1β. To be noted: Rat, nerve injured, oral gavage 0.05-1 mg/kg for 7 days, M1.
Text: as §1

The subject of test [6] is IL-6. To be noted: Rat, nerve injured; oral gavage 0.05-1 mg/kg for 7 days; M1.
Text: as §1

A further test concerns MCP-1 (CCL2). To be noted: Rat, nerve injured, oral gavage 0.05-1 mg/kg for 7 days, M1.
Text: as §1

For the next test, the system named is MIP-1α (CCL3). To be noted: Rat, nerve injured, oral gavage 0.05-1 mg/kg for 7 days, M1.
Text: as §1

Test [7] concerns TNFα. To be noted: Rat, nerve injured, oral gavage 0.05-1 mg/kg for 7 days, M1.
Text: as §1

Test [8] deals with TLR4/MyD88. To be noted: iDCs, peptide 10-12 M for 30 min, then LPS 100 ng/ml, 48 hrs. How it is done: (§2) To determine whether all-D-TTNYT (SEQ ID NO:1) blocks maturation of antigen-presenting dendritic cells, human PBMC's were isolated from peripheral blood by Ficoll-Paque centrifugation and then monocytes were isolated by negative selection using immunobeads (Miltenyi). Human monocyte derived immature dendritic cells (iDCs) were then generated by treating monocytes with GM-CSF/IL4.
The iDCs were treated with all-D-TTNYT (SEQ ID NO:1), generic name RAP103 (12), at 10-12 M for 30 min. After 30 min LPS (100 ng/ml) was added to the cells and cells were analyzed after 48 hrs. for surface maturation markers using fluorescent labeled antibodies by flow cytometry.

Test [9] addresses insulin-like growth factor 1 receptor (IGF-1R) (Homo sapiens, UniProt P08069). As for the experimental part: as §2
The iDCs were treated with all-D-TTNYT (SEQ ID NO:1), generic name RAP103 (12), at 10-12 M for 30 min. […]

Test [10] deals with T1, CCR2. To be noted: 30 min pretreatment, CCL2 50 ng/mL for 90 min, FIG. 2, cited from earlier work.
The target in test [11] is CCR5 (Homo sapiens, UniProt P51681). To be noted: 30 min pretreatment, CCL4 50 ng/mL for 90 min, FIG. 2, cited from earlier work.
Chain of CCR5 (Homo sapiens, UniProt P51681) (P51681 whole entry): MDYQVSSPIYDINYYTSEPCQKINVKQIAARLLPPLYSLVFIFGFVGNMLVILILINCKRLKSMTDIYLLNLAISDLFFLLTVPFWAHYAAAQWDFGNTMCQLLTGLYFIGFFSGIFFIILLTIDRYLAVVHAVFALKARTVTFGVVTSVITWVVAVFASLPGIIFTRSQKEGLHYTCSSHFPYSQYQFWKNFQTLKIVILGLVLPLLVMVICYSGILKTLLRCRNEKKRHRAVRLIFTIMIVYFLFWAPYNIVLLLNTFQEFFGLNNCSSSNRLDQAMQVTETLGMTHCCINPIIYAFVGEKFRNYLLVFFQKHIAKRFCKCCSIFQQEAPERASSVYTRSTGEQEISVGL
The subject of a further test is activated microglia. Kind of test: Pre-clinical animal models: neuron loss with aging, activated microglial neurotoxicity. It is filed as in vivo. An excerpt: In humans DAPTA improved cognition, speed of information processing and functional brain imaging in neuro-AIDS (24, 25). Therefore, it is believed that the compounds according to the present invention have a strong potential to improve cognitive deficits in the indicated conditions due to shared neurodegenerative inflammatory mechanisms.

A further test deals with IL-1. To be noted: Hu; phenotype M1; cited from earlier work.
Test [12] has as its system IL-6. To be noted: Hu; phenotype M1; cited from earlier work.
The test system of another test is IL-8. To be noted: Hu; phenotype M1; cited from earlier work.
The next test has as its system IL-23. To be noted: Hu; phenotype M1; cited from earlier work.
Test [13] has as its system TNFα. To be noted: Hu; phenotype M1; cited from earlier work.
The next test has as its system ICAM-1. To be noted: Hu; phenotype M1; cited from earlier work.
In another test the test system is STAT3. To be noted: Hu; phenotype M1; cited from earlier work.
In a further test the test system is NFkB. To be noted: Hu; phenotype M1; cited from earlier work.
For test [14], the system named is TLR4/MyD88. To be noted: Rat; phenotype M1; cited from earlier work.
The subject of the next test is IL-4. To be noted: Hu; phenotype M2; cited from earlier work.
The next test concerns IL-10. To be noted: Hu; phenotype M2; cited from earlier work.
Another test deals with IL-13. To be noted: Hu; phenotype M2; cited from earlier work.
In the next test the test system is CCL5. To be noted: mouse synaptosomes; cited from earlier work.
The conditions of test [15]: humans, neuro-AIDS; cited from earlier work.
[16] abbreviates: listed as all-D-pentapeptide TTNYT.

Entries after “also recorded” stand apart in the source; their conditions may differ. Read-outs that look alike come from different tables or passages of the source. Where no end group is shown, it is not given here. [ ]: non-standard residue; d: D form.

Chain of insulin-like growth factor 1 receptor (IGF-1R) (P08069 31-736 limits assumed): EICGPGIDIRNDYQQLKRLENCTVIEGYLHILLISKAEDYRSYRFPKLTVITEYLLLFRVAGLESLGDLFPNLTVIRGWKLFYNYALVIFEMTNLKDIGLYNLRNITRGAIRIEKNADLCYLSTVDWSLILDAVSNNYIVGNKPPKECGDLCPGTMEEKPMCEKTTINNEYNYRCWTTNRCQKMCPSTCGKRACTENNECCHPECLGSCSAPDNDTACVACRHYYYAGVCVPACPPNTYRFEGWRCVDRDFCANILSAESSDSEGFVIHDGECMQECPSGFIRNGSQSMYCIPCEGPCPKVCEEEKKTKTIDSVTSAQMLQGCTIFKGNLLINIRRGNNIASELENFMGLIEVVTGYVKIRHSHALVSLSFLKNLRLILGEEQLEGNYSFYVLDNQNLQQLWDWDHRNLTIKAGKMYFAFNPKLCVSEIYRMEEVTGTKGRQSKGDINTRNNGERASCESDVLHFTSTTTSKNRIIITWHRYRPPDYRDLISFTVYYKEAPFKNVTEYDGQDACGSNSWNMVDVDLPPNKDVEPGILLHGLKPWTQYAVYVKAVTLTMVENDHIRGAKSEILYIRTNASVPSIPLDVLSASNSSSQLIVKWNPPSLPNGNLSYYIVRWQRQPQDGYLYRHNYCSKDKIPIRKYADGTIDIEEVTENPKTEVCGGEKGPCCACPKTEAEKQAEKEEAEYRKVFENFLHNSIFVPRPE

Substance “CCL4 (MIP-1β) (from UniProt P13236 24-92) (ligand)” returned a chemotactic index of human monocytes, without RAP-103 (times over control) in test [1] of 2.
Regarding “human CCL2 (MCP-1) (from UniProt P13500 24-99) (ligand)”, in [2], the chemotactic index of human monocytes, without RAP-103 (times over control) fell in the range of 2.5 to 3.5.
For the substance “all-D-TTSYT: all-D-version of DAPTA related pentapeptide TTSYT ([dT][dT][dS][dY][dT])”, in the test with CCR2 [3], the “CCL2 (MCP-1) human monocyte chemotaxis” value is “antagonists”.
For the substance all-D-bradykinin, the “inhibition of the response to bradykinin or bradykinin-like effect” value in the test with response to bradykinin is reported as “neither any inhibition of the response to bradykinin, or any bradykinin-like effect”.
On to “all-D-NTSYR: all-D-version of DAPTA related pentapeptide NTSYR ([dN][dT][dS][dY][dR])”, for which, in the test with CCR2 [3], the “CCL2 (MCP-1) human monocyte chemotaxis” value is reported as “antagonists”.
In the case of all-D-TTNYT, the “CCR2 Change” value with CCR2 [4] was “decrease”; in the test with CCR2 [4] (setting [16]), “lowering”. For the same substance, the “CCR5 Change” value in the test on CCR5 [5] is “decrease”; with CCR5 [5] (setting [16]), “lowering”. In addition, the “IL-1β Change” value in the test on IL-1β was “decrease”; with IL-1β (setting [16]), “lowering”. The “IL-6 Change” value in the test with IL-6 [6] is recorded as “decrease”. In addition, the entries for the “MCP-1 (CCL2) Change” value in the test with MCP-1 (CCL2) and in the test on MCP-1 (CCL2) (setting [16]) were “decrease” and “lowering”, respectively. The “MIP-1α (CCL3) Change” value in the test on MIP-1α (CCL3) was “decrease”; with MIP-1α (CCL3) (setting [16]), “lowering”. Also, the “TNFα Change” value in the test with TNFα [7] is “decrease”; in the test with TNFα [7] (setting [16]) it was “lowering”. For the same substance, in the test on TLR4/MyD88 [8], the “CD58 (adhesion molecule) expression” value is reported as “reduced”. In addition, in the test with TLR4/MyD88 [8], the CD86 expression entry is on record as “reduced”. In addition, in the test on TLR4/MyD88 [8], the HLA-DR expression result is reported as “reduced”. Also, the “ICAM1 (adhesion molecule) expression” value in the test on TLR4/MyD88 [8] is “reduced”. The “TLR4-mediated maturation of antigen presenting dendritic cells” value in the test on TLR4/MyD88 [8] is recorded as “blocks”. In addition, in [9], the “DC maturation of these four markers caused by LL37” value was “no effect”. Besides, the “MCP-1 (CCL2)-elicited chemotaxis of human monocytes” value at CCR2 [10] is given as “potently blocking”; at CCR2 [10] (listed as RAP-103) it was “dual-antagonist”. In addition, the figures for the “MIP-1β (CCL4)-elicited chemotaxis of human monocytes” value on CCR5 [11] and at CCR5 [11] (listed as RAP-103) were “potently blocking” and “dual-antagonist”, respectively.
Dala1-peptide T-amide [DAPTA]: in the test with activated microglia, the “activated microglial mediated neurotoxicity and release of cytokines and chemokines” value was “blocked”; the “loss of neurons with aging” value is recorded as “prevented”. For the same substance, the “IL-1 Change” value in the test on IL-1 was “reduced; also recorded: decrease”. Also, the “IL-6 Change” value in the test on IL-6 [12] is on record as “reduced; also recorded: decrease”. Besides, the “IL-8 Change” value with IL-8 is reported as “reduced; also recorded: decrease”. Further, in the test on IL-23, the “IL-23 Change” value was “decrease”. Also, the “TNFα Change” value in the test with TNFα [13] is listed as “reduced; also recorded: decrease”. Moreover, the “ICAM-1 Change” value with ICAM-1 is reported as “decrease”. In addition, in the test with STAT3, the “STAT3 Change” value is listed as “decrease”. Moreover, the “NFkB Change” value in the test on NFkB was “decrease”. Also, the “TLR4/MyD88 Change” value with TLR4/MyD88 [14] is “decrease”. In addition, in the test with IL-4, the “IL-4 Change” value is “elevated; also recorded: increase”. In addition, the “IL-10 Change” value in the test on IL-10 was “elevated; also recorded: increase”. Further, the “IL-13 Change” value in the test with IL-13 is “elevated; also recorded: increase”. Further, the “CCL5 facilitated release of aspartate” value in the test with CCL5 was “blocked”. In addition, in test [15], the cognition result is “improved”, the functional brain imaging result is on record as “improved” and the “speed of information processing” value is listed as “improved”.
“all-D-SSTYR: all-D-version of DAPTA related pentapeptide SSTYR ([dS][dS][dT][dY][dR])”: the “CCL2 (MCP-1) human monocyte chemotaxis” value with CCR2 [3] was “antagonists”.
